# Columns and labels:
# rats = conditions: cited from earlier work
# rodent models = conditions: multiple rodent models; cited from earlier work
# [1] = tested on: rat model of Huntington's disease; conditions: cited from earlier work
# primates = conditions: cited from earlier work
# mice = conditions: two separate studies in mice in vivo; cited from earlier work
# human = human clinical trials; cited from earlier work
# rat model = rat model in vivo; cited from earlier work
# h4B1 = h4B1 (Homo sapiens, UniProt Q07343); experiment: In-vitro assay for PDE4 enzymes, real-time enzyme-coupled spectrophotometric assay (Table 3); type: biochemical
# Method: (§1) In-vitro assay for PDE4 enzymes. The in-vitro activity of PDE4 enzymes and the in-vitro potency of therapeutic agents described in the present invention was measured using a real-time, enzyme-coupled spectrophotometric assay. By using three different coupling enzymes, the product of the PDE4 reaction is coupled to the oxidation of the reduced form β-nicotinamide adenine dinucleotide (NADH), which dissipation can be monitored spectrophotmetrically at […]. Assay description. Buffer A containing 50 mM Tris, pH 8.0, 16 mM MgCl2 and 80 mM KCl is prepared and stored at room temperature. Buffer B containing 50 mM Tris, pH 8.0 is prepared and stored at toom temperature. Stock solutions of the following reagents are prepared in Buffer B and stored at −20° C.: Adenosine-5′-triphosphate (ATP), cyclic adenosine-5′-monophosphate (cAMP), phosphoenolpyruvate (PEP) and NADH. An assay mix is prepared by mixing Buffer A, […] (TCEP), ATP, PEP, NADH, myokinase (MK), pyruvate kinase (PK), lactate dehydroganese (LDH) and PDE4 to a final volume of 20 mL, which is enough for a single 96-well assay plate. Assay mix (180 μL) and test article (10 μL) in 1:1 DMSO/H2O mixture is pre-incubated at room temperature for 10 min. The enzymatic reaction is initiated by addition of cAMP (10 μL). Final concentration of all components in the assay (200 μL/well) are as follows: 10 mM MgCl2, 50 mM KCl, 5 mM TCEP, 2.5% DMSO, 0.4 mM NADH, 1 mM PEP, 0.04 mM ATP, 5 units MK, 1 unit PK, 1 unit LDH and appropriate amount of PDE4. Reaction progress curves are monitored in a plate reader capable of measuring light absorbance at 340 nm. A decrease in light absorbance at 340 nm is due to oxidation of NADH. Positive controls containing no test article and negative controls containing no test article and no cAMP are included on every assay plate. Reaction rates are determined from the slopes of the linear portions of the progress curves. All data is percent normalized with respect to controls and presented as percent inhibition.
# h4D7 = h4D7 (Homo sapiens, UniProt Q08499); experiment: as above; type: biochemical
# Method: as §1
# [2] = tested on: patients suffering from asthma and COPD; conditions: cited from earlier work; for results of administration to patients: asthma and COPD patients, initial
# Sequence of h4D7 (Q08499 1-748 isoform Q08499-11): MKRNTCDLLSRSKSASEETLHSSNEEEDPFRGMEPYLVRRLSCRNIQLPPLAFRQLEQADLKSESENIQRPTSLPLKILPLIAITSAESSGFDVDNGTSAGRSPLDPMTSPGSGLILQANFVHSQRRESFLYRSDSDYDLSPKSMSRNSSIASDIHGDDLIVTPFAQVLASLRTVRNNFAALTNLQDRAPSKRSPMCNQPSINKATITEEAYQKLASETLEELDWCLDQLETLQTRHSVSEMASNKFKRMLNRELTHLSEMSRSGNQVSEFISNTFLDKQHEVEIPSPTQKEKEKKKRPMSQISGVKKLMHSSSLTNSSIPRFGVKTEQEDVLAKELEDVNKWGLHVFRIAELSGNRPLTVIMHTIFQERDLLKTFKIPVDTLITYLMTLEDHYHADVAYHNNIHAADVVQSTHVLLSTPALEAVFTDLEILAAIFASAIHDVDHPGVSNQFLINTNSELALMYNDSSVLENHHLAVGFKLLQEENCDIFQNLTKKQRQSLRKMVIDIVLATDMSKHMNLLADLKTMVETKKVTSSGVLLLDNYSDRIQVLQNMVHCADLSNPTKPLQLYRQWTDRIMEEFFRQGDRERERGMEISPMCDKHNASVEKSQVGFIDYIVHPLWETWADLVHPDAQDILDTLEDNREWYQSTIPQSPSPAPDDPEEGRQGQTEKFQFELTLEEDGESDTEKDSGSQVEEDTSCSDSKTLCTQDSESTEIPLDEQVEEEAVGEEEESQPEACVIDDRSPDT
# Sequence of h4B1 (Q07343 whole entry): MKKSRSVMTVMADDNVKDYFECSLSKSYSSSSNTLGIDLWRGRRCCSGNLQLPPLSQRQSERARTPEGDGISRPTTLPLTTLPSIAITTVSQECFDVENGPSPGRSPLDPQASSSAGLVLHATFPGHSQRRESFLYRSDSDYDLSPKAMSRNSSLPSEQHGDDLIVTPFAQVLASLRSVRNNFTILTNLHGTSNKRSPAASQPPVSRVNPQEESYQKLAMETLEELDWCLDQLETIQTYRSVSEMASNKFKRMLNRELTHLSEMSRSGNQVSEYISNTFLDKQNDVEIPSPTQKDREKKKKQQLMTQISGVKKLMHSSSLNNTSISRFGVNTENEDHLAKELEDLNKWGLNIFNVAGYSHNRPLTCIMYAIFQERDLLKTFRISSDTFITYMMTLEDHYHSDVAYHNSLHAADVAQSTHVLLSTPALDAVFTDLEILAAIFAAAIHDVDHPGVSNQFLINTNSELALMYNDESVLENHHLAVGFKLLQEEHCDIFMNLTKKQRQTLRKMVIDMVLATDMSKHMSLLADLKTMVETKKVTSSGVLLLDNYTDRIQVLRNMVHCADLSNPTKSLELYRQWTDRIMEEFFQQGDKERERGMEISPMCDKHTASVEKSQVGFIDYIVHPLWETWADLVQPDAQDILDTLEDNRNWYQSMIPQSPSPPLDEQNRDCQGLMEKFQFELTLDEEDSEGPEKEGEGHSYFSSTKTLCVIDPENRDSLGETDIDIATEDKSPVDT
Structure (SMILES),IC50 (h4B1) [nM],IC50 (h4D7) [nM],further results
CCc1ccc2c(-c3cccc(Cl)c3)nc(=O)n(CC)c2n1 [YM976],,,effects of experimentally-induced interstitial cystitis (rats): ameliorate the effects; frequency of urination (rats): decrease; volume of urine at each time of urination (rats): increase
COc1ccc(C2CNC(=O)C2)cc1OC1CCCC1 (stereo not drawn) [Rolipram],,,cognition (rodent models): enhance cognition; neuroprotection [1]: neuroprotective effect; cognition (primates): enhance cognition; outcome in schizophrenia models (mice): improves the outcome; depression (human): ameliorate depression
"Cc1noc(/C(=C/c2cccc(-c3cc(C(C)(C)S(C)(=O)=O)cc4cccnc34)c2)c2ccc(S(C)(=O)=O)cc2)n1 [L-454,560]",,,learning (rat model): improve learning
"Nc1nc2c(-c3ccc4c(c3)OCO4)cc(Cc3ccc(F)cc3)cc2s1 [Example 4, 4-Benzo[1,3]dioxol-5-yl-6-(4-fluoro-benzyl)-benzothiazol-2-ylamine]",1000 to 10000,< 1000,
"Nc1nc2c(-c3cccc([N+](=O)[O-])c3)cc(Cc3ccc(F)cc3)cc2s1 [Example 1, 6-(4-fluorobenzyl)-4-(3-nitrophenyl)-benzothiazol-2-yl amine]",1000 to 10000,< 1000,
"Cc1nc2c(-c3cccc(Cl)c3)cc(Cc3ccc(N)cc3)cc2o1 [Example 22, 4-{[4-(3-chlorophenyl)-2-methyl-1,3-benzoxazol-6-yl]methyl}aniline]",< 1000,< 1000,
"CC(=O)c1cccc(-c2cc(Cn3cccn3)cc3sc(N)nc23)c1 [Example 12, 1-[3-(2-Amino-6-pyrazol-1-ylmethyl-benzothiazol-4-yl)-phenyl]-ethanone]",1000 to 10000,< 1000,
COc1ccc([C@]2(C#N)CC[C@@H](C(=O)O)CC2)cc1OC1CCCC1 [cilomilast],,,results of administration to patients [2]: initially excellent results; effect on long-term trial ([2]; long-term trial): disappeared
"COc1ccc(Cc2cc3scnc3c(-c3cccc(Cl)c3)c2F)cn1 [Example 38, 4-(3-chloro-phenyl)-5-fluoro-6-(6-methoxy-pyridin-3-ylmethyl)-benzothiazole]",1000 to 10000,< 1000,
"NC(=O)Nc1ccc(Cc2cc3sc(N)nc3c(-c3cccc(Cl)c3)c2F)cc1 [Example 21, {4-[2-amino-4-(3-chloro-phenyl)-5-fluoro-benzothiazol-6-ylmethyl]-phenyl}-urea]",< 1000,< 1000,
"CSc1cccc(-c2cc(Cn3cccn3)cc3sc(N)nc23)c1 [Example 14, 4-(3-Methylsulfanyl-phenyl)-6-pyrazol-1-ylmethyl-benzothiazol-2-ylamine]",1000 to 10000,< 1000,
"Nc1ccc(Cc2cc(-c3cccc(Cl)c3)c3nc(N)sc3c2)cc1 [Example 26, 6-(4-Amino-benzyl)-4-(3-chloro-phenyl)-benzothiazol-2-ylamine]",< 1000,< 1000,
"CCOC(=O)Nc1ccc(Cc2cc3scnc3c(-c3cccc(Cl)c3)c2F)cn1 [Example 40, {5-[4-(3-chloro-phenyl)-5-fluoro-benzothiazol-6-ylmethyl]-pyridin-2-yl}-carbamic acid ethyl ester]",> 30000,< 1000,
O=C(Nc1c(Cl)cncc1Cl)c1ccc(OC(F)F)c(OCC2CC2)c1 [roflumilast],,,results of administration to patients [2]: initially excellent results

# — patent US8883833B2, “Substituted benzoazole PDE4 inhibitors for treating inflammatory, cardiovascular and CNS disorders” (Decode Genetics EHF, priority 2007, dated 2014)
